Consider ten molecules from PubChem BioAssay (NCI).

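A five-concentration, 48-hour dose response in 96-well plates underlies each endpoint, interpolated linearly between surrounding concentrations. TGI marks complete inhibition of growth.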

Among the test systems are 786-0 renal; A498 renal; DMS 273 small cell lung; HCT-15 colon; HOP-18 NSCLC; HOP-92 NSCLC; KM20L2 colon; MALME-3M melanoma; NCI-H460 lung; SNB-19 CNS; MDA-N; PC-3 prostate.
Experiment in all cases: inhibition of tumour cell growth, NCI panel, 48 h

For `CC(=O)OCC(=O)[C@@]1(O)CC[C@H]2[C@@H]3CCC4=CC(=O)[C@H](C)C[C@]4(C)[C@H]3[C@@H](O)C[C@@]21C`, the TGI with 786-0 renal, with A498 renal, with DMS 273 small cell lung, in the experiment on HCT-15 colon, in the experiment with HOP-18 NSCLC and in the experiment on HOP-92 NSCLC was more than 100 µM in each case. Besides, the TGI with KM20L2 colon, with MALME-3M melanoma, in the experiment with NCI-H460 lung and with SNB-19 CNS was more than 100 µM throughout.
`COc1cc(/C=C/C(=O)c2sc(-n3nc(-c4ccccc4)cc3-c3ccccc3)nc2C)ccc1O`: the TGI in the experiment with 786-0 renal, with A498 renal, with DMS 273 small cell lung, in the experiment with HCT-15 colon, with HOP-18 NSCLC and in the experiment with HOP-92 NSCLC was more than 100 µM in each case. Besides, the TGI with KM20L2 colon, in the experiment on MALME-3M melanoma and with NCI-H460 lung was more than 100 µM throughout.
On to `C/C(=N\N)C(CN(C)C)C(c1ccccc1)c1c(O)c2ccccc2oc1=O` (stereo not given), for which the TGI in the experiment on 786-0 renal, in the experiment on A498 renal, in the experiment with DMS 273 small cell lung, with HCT-15 colon, in the experiment on HOP-18 NSCLC and in the experiment with HOP-92 NSCLC was more than 100 µM in each case. Besides, the TGI in the experiment with KM20L2 colon, in the experiment with MALME-3M melanoma, with MDA-N, in the experiment on NCI-H460 lung, in the experiment on PC-3 prostate and in the experiment with SNB-19 CNS was more than 100 µM in each case.
Regarding `COc1ccc(Br)c2c1CC(C(=O)O)CC2` (stereo not given), the TGI in the experiment with 786-0 renal, in the experiment with A498 renal, with DMS 273 small cell lung, in the experiment on HCT-15 colon, in the experiment with HOP-18 NSCLC and in the experiment with HOP-92 NSCLC was more than 100 µM each time. Also, the TGI with KM20L2 colon, in the experiment with MALME-3M melanoma, with MDA-N, in the experiment with NCI-H460 lung, in the experiment with PC-3 prostate and with SNB-19 CNS was more than 100 µM each time.
With `NC(=O)OCC(COc1ccc(Cl)cc1)OC(=O)c1ccccc1Cl` (stereo not given), the TGI in the experiment with 786-0 renal was 36.6 µM; in the experiment with A498 renal it was more than 100 µM; with DMS 273 small cell lung it was 36.4 µM; with HCT-15 colon it was 30 µM; in the experiment with HOP-18 NSCLC it was 62.8 µM; in the experiment on HOP-92 NSCLC, 45.1 µM. The TGI with KM20L2 colon came out at 34.9 µM; with MALME-3M melanoma it was 48.6 µM; in the experiment with NCI-H460 lung, 30.9 µM; in the experiment with SNB-19 CNS, 97.7 µM.
As for `Cc1c2ccncc2cc2c1sc1ccncc12`, the TGI was 18 µM in the experiment on 786-0 renal; 13.8 µM in the experiment on A498 renal; 11.1 µM with DMS 273 small cell lung; 14.4 µM in the experiment on HCT-15 colon; more than 100 µM with HOP-18 NSCLC; 46.9 µM in the experiment with HOP-92 NSCLC. Also, the TGI was 25.7 µM in the experiment on KM20L2 colon; 15 µM in the experiment on MALME-3M melanoma; 14.3 µM with MDA-N; 4.77 µM in the experiment with NCI-H460 lung; 10.5 µM in the experiment on PC-3 prostate; 30.3 µM in the experiment on SNB-19 CNS.
Take `NS(=O)(=O)c1cc2c(cc1Cl)NC(C(=O)c1cc(=O)c3ccc(O)cc3o1)=NS2(=O)=O`: the TGI with 786-0 renal, in the experiment with A498 renal, in the experiment with DMS 273 small cell lung, in the experiment with HCT-15 colon, in the experiment with HOP-18 NSCLC and in the experiment with HOP-92 NSCLC was more than 100 µM each time. The TGI in the experiment with KM20L2 colon, in the experiment with MALME-3M melanoma, in the experiment with NCI-H460 lung and with SNB-19 CNS was more than 100 µM each time.
As to `O=S(=O)([O-])[O-].[Fe+2].c1ccc(/C(=N\Nc2ccccn2)c2ccccn2)cc1`, the TGI with 786-0 renal is 10.7 µM; in the experiment with A498 renal, 24.2 µM; in the experiment with DMS 273 small cell lung, 11.5 µM; in the experiment with HCT-15 colon, 11.3 µM; in the experiment on HOP-18 NSCLC, 14.6 µM; in the experiment on HOP-92 NSCLC it was 7.67 µM. Further, the TGI in the experiment with KM20L2 colon is 12.4 µM; in the experiment on MALME-3M melanoma it was 10.1 µM; in the experiment on NCI-H460 lung, 8.55 µM; in the experiment with SNB-19 CNS, 15.4 µM.
`COc1cc(/C=C\c2ccccn2)cc(OC)c1OC`: the TGI in the experiment with 786-0 renal, with A498 renal, in the experiment with DMS 273 small cell lung, in the experiment with HCT-15 colon, with HOP-18 NSCLC and in the experiment on HOP-92 NSCLC was more than 100 µM throughout. The TGI in the experiment on KM20L2 colon, in the experiment with MALME-3M melanoma, in the experiment on NCI-H460 lung and in the experiment with SNB-19 CNS was more than 100 µM throughout.
In the case of `NC(=S)NNC(=O)/C(=C/c1ccc(/C=C(\NC(=O)c2ccccc2)C(=O)NNC(N)=S)cc1)NC(=O)c1ccccc1`, the TGI with 786-0 renal, with A498 renal, in the experiment with DMS 273 small cell lung, in the experiment on HCT-15 colon, in the experiment on HOP-18 NSCLC and in the experiment with HOP-92 NSCLC was more than 100 µM each time. Moreover, the TGI in the experiment on KM20L2 colon, in the experiment with MALME-3M melanoma, with NCI-H460 lung and in the experiment on SNB-19 CNS was more than 100 µM each time.
